pIC50: −log10 of the molar value.
Columns and labels:
[1] = target: T1, human kinesin spindle protein KSP/Eg5 (Homo sapiens, UniProt P52732); assay: Inhibition of the kinesin spindle protein KSP/Eg5 (ATPase, malachite green); type: biochemical; conditions: 10 nM KSP motor domain, 500 μM ATP, 2 h RT
T1 construct: The motor domain of the human kinesin spindle protein KSP/Eg5; purchased tebu-bio/Cytoskeleton Inc 027EG01-XL
T1 sequence (P52732 18-359 limits assumed): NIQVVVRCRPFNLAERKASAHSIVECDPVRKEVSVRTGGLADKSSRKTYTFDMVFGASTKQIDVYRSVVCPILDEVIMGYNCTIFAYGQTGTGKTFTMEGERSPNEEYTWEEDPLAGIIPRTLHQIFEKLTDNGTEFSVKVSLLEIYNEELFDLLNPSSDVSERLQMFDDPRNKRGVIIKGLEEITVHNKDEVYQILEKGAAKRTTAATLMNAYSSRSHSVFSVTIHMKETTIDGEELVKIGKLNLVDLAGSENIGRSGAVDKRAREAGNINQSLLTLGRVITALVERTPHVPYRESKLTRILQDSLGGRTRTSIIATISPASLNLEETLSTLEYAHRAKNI
How it was run: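 KSP/Eg5 motor domain (10 nM) preincubated 5 min at RT with 50 μg/ml taxol-stabilized bovine or porcine microtubules in 15 mM PIPES pH 6.8, 5 mM MgCl2, 10 mM DTT. IC50 = mean of three experiments.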

NCI-H292 = assay: Cytotoxic effects, MTT assay; type: cell-based; conditions: Homo sapiens, 72 h incubation
Protocol: The cells are cultivated by a standard method, as indicated in the […] (ATCC) for the respective cell lines.
At the end of the selected incubation time, the MTT reagent is incubated with the cells for 4 h, followed by lysis of the cells overnight by addition of the detergent. […] The proliferation of cells which were not treated with test substance but were otherwise identically treated was defined as the 100% figure.

in vitro = conditions: human, Caco-2

| Compound | pIC50 [1] | IC50 (NCI-H292) | Papp B→A at 2 h (in vitro) | efflux ratio at 2 h (in vitro) |
| --- | --- | --- | --- | --- |
| CC(C)(C)[C@H](c1nn(-c2cc(F)ccc2F)cc1Cc1ccccc1)N(CCCN)C(=O)CO [Example 96, N-(3-Aminopropyl)-N-{(1R)-1-[4-benzyl-1-(2,5-difluorophenyl)-1H-pyrazol-3-yl]-2,2-dimethylpropyl}-2-hydroxyacetamide] | 8.11 | 2.09 nM | 28.5 ×10⁻⁶ cm/s | 16 |
| CC(C)(C)[C@H](c1nc(-c2cc(F)ccc2F)cn1Cc1ccccc1)N(CC[C@H](N)C(=O)NCCC(=O)NCCN1C(=O)CC(SC[C@H](N)C(=O)O)C1=O)C(=O)CO.O=C(O)C(F)(F)F (stereo partly drawn) [Example 130, S-(1-{2-[(N-{(2S)-2-Amino-4-[{(1R)-1-[1-benzyl-4-(2,5-difluorophenyl)-1H-imidazol-2-yl]-2,2-dimethylpropyl}(glycoloyl)amino]butanoyl}-beta-alanyl)amino]ethyl}-2,5-dioxopyrrolidin-3-yl)-L-cysteine/trifluoroacetic acid (1:1)] | 8.78 | 178 nM | 1 ×10⁻⁶ cm/s | 6.7 |
| CC(C)(C)[C@H](c1nn(-c2cc(F)ccc2F)cc1Cc1ccccc1)N(CC[C@H](N)C(=O)NCCNC(=O)CN1C(=O)CC(SC[C@H](N)C(=O)O)C1=O)C(=O)CO.O=C(O)C(F)(F)F (stereo partly drawn) [Example 131, S-[1-(2-{[2-({(2S)-2-Amino-4-[{(1R)-1-[4-benzyl-1-(2,5-difluorophenyl)-1H-pyrazol-3-yl]-2,2-dimethylpropyl}(glycoloyl)amino]butanoyl}amino)ethyl]amino}-2-oxoethyl)-2,5-dioxopyrrolidin-3-yl]-L-cysteine/trifluoroacetic acid (1:1)] | 8.91 | ≥ 500 nM | 0.9 ×10⁻⁶ cm/s | 10 |
| C[C@H](NC(=O)CCNC(=O)[C@@H](N)CCN(C(=O)CO)[C@@H](c1nn(-c2cc(F)ccc2F)cc1Cc1ccccc1)C(C)(C)C)C(=O)N[C@@H](CCCNC(N)=O)C(=O)Nc1ccc(N2C(=O)CC(SC[C@H](N)C(=O)O)C2=O)cc1.O=C(O)C(F)(F)F (stereo partly drawn) [Example 132, N-{(2S)-2-Amino-4-[{(1R)-1-[4-benzyl-1-(2,5-difluorophenyl)-1H-pyrazol-3-yl]-2,2-dimethylpropyl}(glycoloyl)amino]butanoyl}-beta-alanyl-L-alanyl-N-[4-(3-{[(2R)-2-amino-2-carboxyethyl]sulphanyl}-2,5-dioxopyrrolidin-1-yl)phenyl]-N^5-carbamoyl-L-ornithinamide/trifluoroacetic acid (1:1)] | 8.78 | ≥ 500 nM | 0.16 ×10⁻⁶ cm/s | 1 |
| CC(C)(C)[C@H](c1cc(-c2cc(F)ccc2F)cn1Cc1ccccc1)N(CC[C@H](N)C(=O)NCCC(=O)NCCN1C(=O)CC(SC[C@H](N)C(=O)O)C1=O)C(=O)CO.O=C(O)C(F)(F)F (stereo partly drawn) [Example 133, S-(1-{2-[(N-{(2S)-2-Amino-4-[{(1R)-1-[1-benzyl-4-(2,5-difluorophenyl)-1H-pyrrol-2-yl]-2,2-dimethylpropyl}(glycoloyl)amino]butanoyl}-beta-alanyl)amino]ethyl}-2,5-dioxopyrrolidin-3-yl)-L-cysteine/trifluoroacetic acid (1:1)] | 8.38 | 155 nM | 0.43 ×10⁻⁶ cm/s | 6 |
| CC(C)[C@H](NC(=O)CCCCCN1C(=O)CC(SC[C@H](N)C(=O)O)C1=O)C(=O)N[C@@H](CCCNC(N)=O)C(=O)N[C@@H](CCCCNC(=O)[C@@H](N)CCN(C(=O)CO)[C@@H](c1nn(-c2cc(F)ccc2F)cc1Cc1ccccc1)C(C)(C)C)C(=O)O (stereo partly drawn) [Example 134, N-[6-(3-{[(2R)-2-Amino-2-carboxyethyl]sulphanyl}-2,5-dioxopyrrolidin-1-yl)hexanoyl]-L-valyl-N^5-carbamoyl-L-ornithyl-N^6-{(2S)-2-amino-4-[{(1R)-1-[4-benzyl-1-(2,5-difluorophenyl)-1H-pyrazol-3-yl]-2,2-dimethylpropyl}(glycoloyl)amino]butanoyl}-L-lysine/trifluoroacetic acid (1:1)] | 8.36 | ≥ 500 nM | 0.29 ×10⁻⁶ cm/s | 0.5 |
| CC(C)(C)[C@H](c1nn(-c2cc(F)ccc2F)cc1Cc1ccccc1)N(CC[C@H](N)C(=O)NCCNC(=O)CSC[C@H](N)C(=O)O)C(=O)CO.O=C(O)C(F)(F)F [Example 136, S-(2-{[2-({(2S)-2-Amino-4-[{(1R)-1-[4-benzyl-1-(2,5-difluorophenyl)-1H-pyrazol-3-yl]-2,2-dimethylpropyl}(glycoloyl)amino]butanoyl}amino)ethyl]amino}-2-oxoethyl)-L-cysteine/trifluoroacetic acid (1:1)] | 9.48 | ≥ 500 nM | 0.91 ×10⁻⁶ cm/s | 8.5 |
| CC(C)(C)[C@H](c1nn(-c2cc(F)ccc2F)cc1Cc1ccccc1)N(CC[C@H](N)C(=O)NNC(=O)CCCCCN1C(=O)CC(SC[C@H](N)C(=O)O)C1=O)C(=O)CO.O=C(O)C(F)(F)F (stereo partly drawn) [Example 137, S-{1-[6-(2-{(2S)-2-Amino-4-[{(1R)-1-[4-benzyl-1-(2,5-difluorophenyl)-1H-pyrazol-3-yl]-2,2-dimethylpropyl}(glycoloyl)amino]butanoyl}hydrazino)-6-oxohexyl]-2,5-dioxopyrrolidin-3-yl}-L-cysteine/trifluoroacetic acid (1:1)] | 9.11 | ≥ 500 nM | 1.7 ×10⁻⁶ cm/s | 19 |
| CC(C)(C)[C@H](c1cc(-c2cc(F)ccc2F)cn1Cc1ccccc1)N(CC[C@H](N)C(=O)NCCN1C(=O)CC(SC[C@H](N)C(=O)O)C1=O)C(=O)CO.O=C(O)C(F)(F)F.O=C(O)C(F)(F)F (stereo partly drawn) [Example 139, S-{(3R/S)-1-[2-({(2S)-2-amino-4-[{(1R)-1-[1-benzyl-4-(2,5-difluorophenyl)-1H-pyrrol-2-yl]-2,2-dimethylpropyl}(glycoloyl)amino]butanoyl}amino)ethyl]-2,5-dioxopyrrolidin-3-yl}-L-cysteine/trifluoroacetic acid (1:2)] | 8.74 | 134 nM | 2.1 ×10⁻⁶ cm/s | 7.7 |
| CC(C)(C)[C@H](c1cc(-c2cc(F)ccc2F)cn1Cc1ccccc1)N(CCCN)C(=O)CSCCCCCC(=O)NCCN1C(=O)CC(SC[C@H](N)C(=O)O)C1=O.O=C(O)C(F)(F)F.O=C(O)C(F)(F)F (stereo partly drawn) [Example 141, S-[(3R/S)-1-(2-{[6-({2-[(3-aminopropyl) {(1R)-1-[1-benzyl-4-(2,5-difluorophenyl)-1H-pyrrol-2-yl]-2,2-dimethylpropyl}amino]-2-oxoethyl}sulphanyl)hexanoyl]amino}ethyl)-2,5-dioxopyrrolidin-3-yl]-L-cysteine/trifluoroacetic acid (1:2)] | 9.04 | 16.1 nM | 3 ×10⁻⁶ cm/s | 35 |
| CC(C)(C)[C@H](c1cc(-c2cc(F)ccc2F)cn1Cc1ccccc1)N(CC[C@H](N)C(=O)N[C@H]1CC[C@@H](C(=O)NCCN2C(=O)CC(SC[C@H](N)C(=O)O)C2=O)C1)C(=O)CO.O=C(O)C(F)(F)F (stereo partly drawn) [Example 157, S-{1-[2-({[(1R,3S)-3-({(2S)-2-Amino-4-[{(1R)-1-[1-benzyl-4-(2,5-difluorophenyl)-1H-pyrrol-2-yl]-2,2-dimethylpropyl}(glycoloyl)amino]butanoyl}amino)cyclopentyl]carbonyl}amino)ethyl]-2,5-dioxopyrrolidin-3-yl}-L-cysteine/trifluoroacetic acid (1:1)] | 8.02 | ≥ 500 nM | 0.77 ×10⁻⁶ cm/s | 7.2 |
